Values quoted from earlier work, collected in patent publication US20030144259A1, “Breast cancer hormonal therapy” (priority 2000, published 2003).

Conditions: human, in vivo; cited from earlier work

SMILES: CCC1(c2ccc(N)cc2)CCC(=O)NC1=O (stereo not shown) [aminoglutethimide]
- dizziness: 15%
- lethargy: 36%
- nausea and vomiting: 10%
- patients requiring discontinuation of drug: about 5%
- patients with side effects: about 35%
- severe myelosuppression: less than 1%
- transient maculopapular rash: 25%
